No end group written: not given here.
Tests used:
[1] = Fluorescence ANTS/DPX vesicle leakage assay in POPC/POPG (3:1); conditions: for Leakage, mean value: ANTS/DPX, POPC/POPG (3:1) 100 nm vesicles, P/L about 1:160 per peptide, mixtures 1:1, 10 mM HEPES pH 7.5, 155 mM NaCl, 30 °C, 600 s, % of Triton-X-100 leakage, fluorescence, mean of n = 3; for Leakage synergy in combination with MAG2-E19K / Leakage synergy in combination with MAG2-E19K-amide: POPC/POPG (3:1) vesicles, result in words
Method: The synergy was also investigated by a fluorescence ANTS/DPX leakage assay[24],[27],[30]. As described in the Methods section, leakage from POPC/POPG (3:1) vesicles was measured for 10 minutes after the addition of vesicles to a peptide solution. Leakage is expressed as percentage of the full leakage, which was obtained after addition of detergent. A synergy factor was defined to describe the enhancement of leakage of the mixture compared to the sum of the extent of leakage for each component. […] In general a synergy factor above 2 indicated synergy. […] In the leakage assay, this pore formation can be studied under more controlled conditions. Here we use two lipid compositions for the vesicles, which are mimicking bacterial membranes.
(§1) Leakage of small unilamellar vesicles induced by the peptides was studied using a standard fluorescence assay.
(§2) The appropriate lipids for each experiment were dissolved in CHCl3, together with 0.02 mol-% Rhodamine-PE (Rh-PE). […] This stock suspension was subjected to 10 freeze-thaw cycles and then frozen. Appropriate aliquots of the stock lipid suspension were unfrozen each day and extruded (41 times) through polycarbonate membranes with 100 nm pore size, and stored at room temperature overnight. The fluorophore and quencher outside the vesicles were removed by size exclusion chromatography using spin-columns (Pierce centrifuge column, 2 ml, Life Technologies GmbH, Darmstadt, Germany) filled with Sephacryl 100-HR (2 min, 1500 × g). For elution, a 10 mM HEPES buffer (pH 7.5) was used, containing 155 mM NaCl to balance the osmolarity. After extrusion and removal of the external dye and quencher, the lipid concentration usually decreases. Therefore, before each set of measurements a rhodamine spectrum was recorded to determine the actual concentration of lipids, which was referenced to a spectrum taken of vesicles made by sonification without any subsequent treatment.
(§3) Fluorescence experiments were performed on a FluoroMax2 spectrofluorimeter (HORIBA Jobin Yvon, Unterhaching, Germany) equipped with a thermostated sample holder and magnetic stirrer, using an excitation wavelength of 355 nm, an emission wavelength of 508 nm, and slit widths of 5 nm. The peptide solutions were placed in elution buffer in a 1 cm standard cuvette at 30 °C. 100 s after the start of the measurement lipid vesicles were added, and the intensity of the fluorescence at 508 nm was recorded. The leakage was measured during 600 s after addition of vesicles, and the measurement was terminated after addition of Triton-X-100 (0.25% v/v), which dissolved the vesicles, and yielded 100% leakage. To determine the background signal of the vesicles themselves, several blanks were recorded per measurement set. From the leakage values of the peptides alone and of the mixture of two peptides a synergy factor SF was calculated:3 SF=L(A+B)/[L(A)+L(B)] […] Measurements were repeated three times and average values and standard deviations calculated for the leakage and the synergy factors. An average SF ≥ 2 was taken to indicate synergy.

[2] = Fluorescence ANTS/DPX vesicle leakage assay in POPE/POPG/TOCL (72:23:5); conditions: POPE/POPG/TOCL (72:23:5) 100 nm vesicles, P/L ≈ 1:30, mixtures 1:1, 10 mM HEPES pH 7.5, 155 mM NaCl, 30 °C, 600 s, % of Triton-X-100 leakage, mean of n = 3
From the text: It could be argued that POPC/POPG (3:1) is not the most appropriate model system to describe a bacterial membrane, which rarely contains PC lipids. We therefore also performed leakage in another lipid system, POPE/POPG/TOCL (72:23:5), which is a good model of E. coli membranes[45],[69],[70]. […] For all of the other mutants discussed below, leakage was also studied both in POPC/POPG as well as POPE/POPG/TOCL, but since the results (synergy or no synergy) were in all cases the same, the latter data will not be presented in the text. All leakage data in POPE/POPG/TOCL (72:23:5) for charge mutants are summarized in Supplementary Table S4.
as §1, §2
as §3, with “SF=L(A+B)/[L(A)+L(B)] Here, L(A) is the leakage found with peptide A alone, L(B) is the leakage found with peptide B alone, and L(A + B) is the leakage found with the mixture of peptides A and B. In all cases the P/L was the same for both peptides, alone and in the mixture, so that in the mixture the total P/L was twice that of the individual peptide measurements.” for “SF=L(A+B)/[L(A)+L(B)]”

[3] = Table S11 series (MSI-to-PGLa mutants)
[4] = Table S12 series (MSI-to-PGLa mutants)
[5] = Table S7 series (PGLa-to-MSI mutants)
[6] = Table S8 series (PGLa-to-MSI mutants)
[7] = Table S3 series (charge mutants)
[8] = Table S4 series (charge mutants)

KIAGKAGKIAGKIAKIAGKIA-NH2 (also: 15N-labeled Ala10) [MtP-I6A-A7G, MSI-103 double mutant I6A, A7G]
Leakage, mean value [1, 3]: 0.8%

KIAGKIAAIAGKIAKIAGKIA-NH2 [MtP-K8A, MSI-103 to PGLa single mutant K8A]
Leakage, mean value [1, 3]: 1.7% | Leakage, mean value [2, 4]: 1.8%

KIAGKIAKIAGKIAKVALKAL-NH2 [PtM-a1, PGLa to MSI-103 mutant, segment A replaced]
Leakage, mean value [1, 5]: 4.7% | Leakage, mean value [2, 6]: 18.6%

GIGKFLHSAKKFGKAFVGEIMNS-OH [MAG2-WT, magainin 2, wild type antimicrobial peptide from Xenopus laevis skin, reference compound]
Leakage, mean value [1, 7]: 3.1% | Leakage, mean value [1, 5]: 3.2% | Leakage, mean value [1, 3]: 3.2% | Leakage, mean value ([1]; Table S15 series (Gly mutants)): 3.2% | Leakage, mean value [2, 8]: 1.1% | Leakage, mean value [2, 6]: 1.2% | Leakage, mean value [2, 4]: 1.0% | Leakage, mean value ([2]; Table S16 series (Gly mutants)): 1.1%

KIAGKIAKIAGKIAKIAGKIA-NH2 [MSI-103, designer-made AMP ([KIAGKIA]3-NH2) derived from PGLa, reference compound]
Leakage, mean value [1, 5]: 2.0% | Leakage, mean value [2, 6]: 5.6%

KIAGKIGAIAGKIAKIAGKIA-NH2 (also: 15N-labeled Ala10) [MtP-K8A-A7G, MSI-103 double mutant K8A, A7G]
Leakage, mean value [1, 3]: 1.3%

KIAGKIGKIAGKIAKIALKIA-NH2 (also: 15N-labeled Ala10) [MtP-A7G-G18L, MSI-103 double mutant A7G, G18L]
Leakage, mean value [1, 3]: 4.9%

KIAGKAAKIAGKIAKIAGKIA-NH2 [MtP-I6A, MSI-103 to PGLa single mutant I6A]
Leakage, mean value [1, 3]: 1.6% | Leakage, mean value [2, 4]: 4.8%

GMASKAGAIAGKIAKVALEAL-NH2 [PGLa-K19E, PGLa charge mutant K19E]
Leakage synergy in combination with MAG2-E19K [1]: did not show synergy | Leakage synergy in combination with MAG2-E19K-amide [1]: did not show synergy | Leakage, mean value [1, 7]: 3.0% | Leakage, mean value [2, 8]: 1.7%

GIGKFLHSAKKFGKAFVGEIMNS-NH2 [MAG2-amide, MAG2 with amidated C-terminus]
Leakage, mean value [1, 7]: 3.7% | Leakage, mean value [2, 8]: 0.8%

KIASKIGKIAGKIAKIAGKIA-NH2 (also: 15N-labeled Ala10) [MtP-G4S-A7G, MSI-103 double mutant G4S, A7G]
Leakage, mean value [1, 3]: 1.4%

GIGKFLHSAKKFGKAFVGQIMNS-OH [MAG2-E19Q, MAG2 charge mutant E19Q]
Leakage, mean value [1, 7]: 5.9% | Leakage, mean value [2, 8]: 1.1%

GMASKAGAIAGEIAKVALKAL-NH2 [PGLa-K12E, PGLa charge mutant K12E]
Leakage, mean value [1, 7]: 3.1% | Leakage, mean value [2, 8]: 2.3%

KIAGKAGAIAGKIAKIAGKIA-NH2 [MtP-a3, MSI-103 triple mutant I6A, A7G, K8A]
Leakage, mean value [1, 3]: 0.9% | Leakage, mean value [2, 4]: 0.9%

GMASEAGAIAGKIAKVALKAL-NH2 [PGLa-K5E, PGLa charge mutant K5E]
Leakage, mean value [1, 7]: 3.5% | Leakage, mean value [2, 8]: 2.2%

GMASKAIAG A IKGAKVALKAL-NH2 [PGLa-GS2, PGLa glycine-shift mutant, GxxxG on opposite helix face]
Leakage, mean value ([1]; Table S15 series (Gly mutants)): 2.0% | Leakage, mean value ([2]; Table S16 series (Gly mutants)): 2.2%

GMASKAAAIAGKIAKVALKAL-NH2 (also: 15N-labeled Ala10) [PtM-G7A, PGLa single mutant G7A]
Leakage, mean value [1, 5]: 2.1% | Leakage, mean value [2, 6]: 3.7%

GMASKIAKIAGKIAKVALKAL-NH2 [PtM-a3, PGLa to MSI-103 mutant, three amino acids converted]
Leakage, mean value [1, 5]: 3.3% | Leakage, mean value [2, 6]: 9.1%

GMASKAGAIAGKIAEVALKAL-NH2 [PGLa-K15E, PGLa charge mutant K15E]
Leakage synergy in combination with MAG2-E19K [1]: did not show synergy | Leakage synergy in combination with MAG2-E19K-amide [1]: did not show synergy | Leakage, mean value [1, 7]: 2.9% | Leakage, mean value [2, 8]: 2.5%

GMASKAGAIAGKIAKVALKAL-NH2 [PGLa-WT, PGLa wild type antimicrobial peptide from Xenopus laevis skin, 15N-labeled at Ala10, reference compound]
Leakage, mean value [1, 7]: 2.3% | Leakage, mean value [1, 5]: 2.7% | Leakage, mean value [1, 3]: 2.3% | Leakage, mean value ([1]; Table S15 series (Gly mutants)): 2.2% | Leakage, mean value [2, 8]: 2.2% | Leakage, mean value [2, 6]: 2.2% | Leakage, mean value [2, 4]: 2.1% | Leakage, mean value ([2]; Table S16 series (Gly mutants)): 2.3%

Reference: article PMC5640672, “Molecular mechanism of synergy between the antimicrobial peptides PGLa and magainin 2” (Scientific Reports, 2017)
